In patent US20260109707A1, “HETEROBIFUNCTIONAL COMPOUNDS AND METHODS OF TREATING DISEASE” (Halda Therapeutics OpCo. Inc., priority 2022, published 2026):
pKd: −log10 of the molar value.

Tests used:
androgen receptor = target: T1, androgen receptor (Homo sapiens, UniProt P10275); experiment: Assay for binding affinity to androgen receptor ([3H]methyltrienolone radioligand, cell cytosol); conditions: binding to the androgen receptor, Table 3
T1 sequence (P10275 1-920 T878A): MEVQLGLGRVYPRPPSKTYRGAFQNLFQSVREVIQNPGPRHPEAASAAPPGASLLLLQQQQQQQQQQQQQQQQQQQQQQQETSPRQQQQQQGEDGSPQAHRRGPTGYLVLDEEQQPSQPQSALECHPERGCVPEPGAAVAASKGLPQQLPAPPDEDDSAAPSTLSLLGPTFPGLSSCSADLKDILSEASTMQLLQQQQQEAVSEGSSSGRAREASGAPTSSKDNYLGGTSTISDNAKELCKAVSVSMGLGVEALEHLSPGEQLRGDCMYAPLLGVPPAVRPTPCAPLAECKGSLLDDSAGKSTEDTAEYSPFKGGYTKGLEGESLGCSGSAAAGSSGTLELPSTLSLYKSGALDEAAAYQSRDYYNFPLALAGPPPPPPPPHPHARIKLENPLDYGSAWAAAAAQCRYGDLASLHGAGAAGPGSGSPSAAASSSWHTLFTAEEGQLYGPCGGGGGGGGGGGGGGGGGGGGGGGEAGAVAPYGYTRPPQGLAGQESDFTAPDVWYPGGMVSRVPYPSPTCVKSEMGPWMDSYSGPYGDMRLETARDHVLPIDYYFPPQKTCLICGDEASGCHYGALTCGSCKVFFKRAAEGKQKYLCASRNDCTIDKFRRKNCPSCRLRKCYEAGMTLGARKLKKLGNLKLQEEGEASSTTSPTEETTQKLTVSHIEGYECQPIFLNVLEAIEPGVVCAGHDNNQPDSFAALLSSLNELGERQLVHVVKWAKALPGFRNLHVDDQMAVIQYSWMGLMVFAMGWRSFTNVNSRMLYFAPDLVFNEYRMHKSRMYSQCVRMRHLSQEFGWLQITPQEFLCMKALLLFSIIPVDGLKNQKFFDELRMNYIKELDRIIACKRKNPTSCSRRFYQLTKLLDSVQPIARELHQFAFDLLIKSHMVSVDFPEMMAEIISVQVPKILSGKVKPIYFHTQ
Protocol: Fractions of cell cytosol ([…]) were incubated for 24 hr at 4° C. with 1 nM [^3H]methyltrienolone in the absence or presence of the test compound in a buffer containing 25 mM Hepes-Tris (pH 7.4), 1 mM EDTA, 10 mM Na2MoO4, 2 mM DTT, 5 μM triamcinolone acetonide, and 10% glycerol. Nonspecific binding was determined in the presence of […] testosterone. Following incubation, the samples were filtered rapidly under vacuum through glass fiber filters (GF/B, Packard) presoaked with 0.3% PEI and rinsed several times with ice-cold 50 mM Tris-HCl using a 96-sample cell harvester (Unifilter, Packard). The filters were dried then counted for radioactivity in a scintillation counter (Topcount, Packard) using a scintillation cocktail (Microscint 0, Packard). The results are expressed as a percent inhibition of the control radioligand specific binding. The standard reference compound is testosterone, which is tested in each experiment at several concentrations to obtain a competition curve from which its IC50 is calculated.

[1] = system: T-Rex 293 cell line SC3 cells lacking increased expression of androgen receptor protein; experiment: Cellular growth inhibition assay, T-Rex 293 SC3 cells without doxycycline (CellTiter-Glo, 72 hours); format: cell-based; conditions: 72 h, T-Rex 293 cell line SC3 cells not exposed to doxycycline (lacking increased androgen receptor expression)
Outline: (§1)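 Doxycycline (10 ng/mL) was either included or omitted to toggle wild-type androgen receptor expression in SC3 cells, a T-Rex 293 clone, grown in stripped-serum, phenol red-free medium. After 72 hours with compound, viable cells were quantified by CellTiter-Glo 2.0.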

VCaP cells = experiment: Cellular growth inhibition assay for VCaP cells (CellTiter-Glo, 72 hours); format: cell-based, human; conditions: Homo sapiens, VCaP, 72 h
Outline: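 Luminescent viability signal after 72 h of compound exposure gave GI50 values by four-parameter nonlinear regression. Compounds were added in 0.5% DMSO to cells plated 24 h earlier at 5000/well in DMEM containing 10% FBS.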

[2] = system: T-Rex 293 cell line SC3 cells having increased expression of androgen receptor protein due to exposure to doxycycline; experiment: Cellular growth inhibition assay, T-Rex 293 SC3 cells with doxycycline (CellTiter-Glo, 72 hours); format: cell-based; conditions: 72 h, T-Rex 293 SC3 cells with increased androgen receptor expression due to doxycycline (10 ng/mL)
Outline: as §1

T47D cells = experiment: Cellular growth inhibition assay for T47D cells (CellTiter-Glo, 72 hours); format: cell-based, human; conditions: Homo sapiens, T47D, 72 h, 72 hours treatment
Outline: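 Cells are plated at 3000/well and allowed 24 h before treatment. Test compound in medium containing 0.5% DMSO is then added, with DMSO-only wells as negative control, and plates are incubated 72 h at 37 °C. ATP luminescence (CellTiter-Glo 2.0) is then fitted to four parameters to derive GI50.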

[3] = Cellular growth inhibition assay, T-Rex 293 SC cells with doxycycline (CellTiter-Glo, 72 hours); format: cell-based; conditions: T-Rex 293 SC cells with doxycycline (increased progesterone receptor isoform B)
Protocol: (§2) The following types of cells were prepared for this experiment: (i) a T-Rex 293 cell line having increased expression of progesterone receptor isoform B protein due to exposure to doxycycline and (ii) a T-Rex 293 cell line lacking increased expression of progesterone receptor isoform B protein. Ability of the test compounds to inhibit proliferation of the foregoing cell types was evaluated according to the procedures set forth below.
(§3) The doxycycline-inducible progesterone receptor isoform B protein expressing cell line was established using the following protocol: T-Rex 293 cells were purchased from Invitrogen (Cat #R71007) and transfected using Lipofectamine 2000 with the wild-type progesterone receptor B protein sequence cloned into the pcDNA4/TO vector. Transfected cells were selected using 400 μg/mL Zeocin (Invitrogen Cat #R25001). Following selection, single clones were raised and maintained in Dulbecco's Modified Eagle Medium (DMEM) supplemented with 10% w/w Tetracycline-free fetal bovine serum (FBS) and 250 μg/mL Zeocin. Clones were analyzed for expression of progesterone receptor isoform B protein in the presence and absence of 10 ng/mL doxycycline (Sigma Cat #D9891), and a single doxycycline-inducible clone (hereinafter “SC”) was selected for use in downstream assays.
(§4) The SC cells were seeded on poly-D-lysine coated, black clear-bottom 384-well plates at 2500/well, in 25 μL Phenol Red Free Dulbecco's Modified Eagle Medium (DMEM) supplemented with 10% w/w charcoal-dextran treated fetal bovine serum (FBS) and 1% w/w pen-strep, with or without 10 ng/mL doxycycline. Pen-Strep is a commercially available mixture of penicillin G and streptomycin, which is used in mammalian cell culture media to prevent bacterial contamination. Phenol Red Free Dulbecco's Modified Eagle Medium (DMEM) supplemented with 10% w/w charcoal-dextran treated fetal bovine serum (FBS) and 1% w/w pen-strep, with or without 10 ng/mL doxycycline is herein referred to as Treatment Medium. Following seeding of cells in the plates, the plates were spun at 300×g for 30 seconds, then equilibrated to room temperature for 30 minutes, and then deposited in a humidified tissue culture incubator maintained at 37° C. with 5% CO2.
(§5) At 24 hours after seeding of the cells, dilutions of test compound were prepared in DMSO and dissolved in Treatment Medium, to achieve a final DMSO concentration of 0.5% w/w, thereby providing the Test Compound Solution. A 25 μL aliquot of the Test Compound Solution was added to cells in the well plates. An equal volume of a solution containing DMSO and Treatment Medium was used as a negative control. Following treatment of cells with Test Compound Solution or said equal volume of a solution containing DMSO and Treatment Medium, the plates were spun at 300×g for 30 seconds, and then left in an incubator for 72 hours.
(§6) At the end of the treatment duration, cell viability was quantified with CellTiter-Glo 2.0 reagent (Promega Cat #G9243). For this purpose, plates were equilibrated to room temperature for 30 minutes, and then 25 μL of CellTiter-Glo 2.0 reagent was added to cells in the plate wells. Plates were then agitated on a shaker for two minutes at 500 rpm and subsequently incubated at room temperature for 10 minutes. Following incubation, the plates were spun at 3000×g for 30 seconds, then sealed with an optical adhesive cover, and luminescence readings were measured with an EnVision Plate Reader (Perkin Elmer).
(§7) Data was normalized using zero luminescence for baseline. A four-parameter non-linear regression curve fit was applied to dose-response data in GraphPad Prism data analysis software to determine the half-maximal growth inhibitory concentration (GI50) for each test compound.

[4] = system: T-Rex 293 cell line SC cells lacking increased expression of progesterone receptor isoform B protein; experiment: Cellular growth inhibition assay, T-Rex 293 SC cells without doxycycline (CellTiter-Glo, 72 hours); format: cell-based; conditions: T-Rex 293 SC cells not exposed to doxycycline
Protocol: as §2, §3, §4, §5, §6, §7

Structure (SMILES)	pKd (androgen receptor)	GI50 (VCaP cells) [nM]	GI50 (T47D cells) [nM]	GI50 [1] [nM]	GI50 [2] [nM]	GI50 [3] [nM]	GI50 [4] [nM]
CCNC(=O)C[C@@H]1N=C(c2ccc(OCCOCCOCCOC3CCN(c4ccc(C(=O)N[C@H]5CC[C@H](Oc6ccc(C#N)c(Cl)c6)CC5)nn4)CC3)cc2)c2c(sc(C)c2C)-n2c(C)nnc21 [I-9]	> 7.30	< 500		500 to 1500	< 500		
CCNC(=O)C[C@@H]1N=C(c2ccc(N3CCN(CC4CCN(c5ccc(C(=O)N[C@H]6CC[C@H](Oc7ccc(C#N)c(Cl)c7)CC6)nn5)CC4)CC3)cc2)c2c(sc(C)c2C)-n2c(C)nnc21 [I-28]		< 500	< 500	500 to 1500	< 500	< 500	< 500
CCNC(=O)C[C@@H]1N=C(c2ccc(N3CCC(N(C)C4CN(c5ccc(C(=O)N[C@H]6CC[C@H](Oc7ccc(C#N)c(Cl)c7)CC6)nn5)C4)CC3)cc2)c2c(sc(C)c2C)-n2c(C)nnc21 [I-63]	> 7.30	< 500		500 to 1500	< 500		
CCNC(=O)C[C@@H]1N=C(c2ccc(C3CCC(OC4CCN(c5ccc(C(=O)N[C@H]6CC[C@H](Oc7ccc(C#N)c(Cl)c7)CC6)nn5)CC4)C3)cc2)c2c(sc(C)c2C)-n2c(C)nnc21 (stereo partly drawn) [I-67]		< 500	< 500	< 500	< 500	< 500	< 500
CCNC(=O)C[C@@H]1N=C(c2ccc(N3CCC(CN4CC(N(C)c5ccc(C(=O)N[C@H]6CC[C@H](Oc7ccc(C#N)c(Cl)c7)CC6)nn5)C4)CC3)cc2)c2c(sc(C)c2C)-n2c(C)nnc21 [I-68]	6.30 to 7.30	500 to 1500		> 3000	> 3000		
Cc1sc2c(c1C)C(c1ccc(CCCN3[C@H](C)CN(c4ccc(C(=O)N[C@H]5CC[C@H](Oc6ccc(C#N)c(Cl)c6)CC5)nn4)C[C@@H]3C)cc1)=N[C@@H](Cc1ncco1)c1nnc(C)n1-2 [I-129]		< 500	< 500	< 500	< 500	< 500	< 500
Cc1sc2c(c1C)C(c1ccc(CCCN3[C@@H](C)CN(c4ccc(C(=O)N[C@H]5CC[C@H](Oc6ccc(C#N)c(Cl)c6)CC5)nn4)C[C@@H]3C)cc1)=N[C@@H](Cc1ncco1)c1nnc(C)n1-2 [I-130]		< 500	< 500	< 500	< 500	< 500	< 500
Cc1sc2c(c1C)C(c1ccc(CCC3CC4(CCCN(c5ccc(C(=O)N[C@H]6CC[C@H](Oc7ccc(C#N)c(Cl)c7)CC6)nn5)C4)C3)cc1)=N[C@@H](Cc1ncco1)c1nnc(C)n1-2 (stereo partly drawn) [I-208]		< 500	< 500	< 500	< 500	< 500	< 500

Continued, in another order:

pKd (androgen receptor)	GI50 (VCaP cells) [nM]	GI50 (T47D cells) [nM]	Structure (SMILES)	GI50 [1] [nM]	GI50 [2] [nM]	GI50 [3] [nM]	GI50 [4] [nM]
	< 500	< 500	Cc1sc2c(c1C)C(c1ccc(CCN3CCCN(c4ccc(C(=O)N[C@H]5CC[C@H](Oc6ccc(C#N)c(Cl)c6)CC5)nn4)CC3)cc1)=N[C@@H](Cc1ncco1)c1nnc(C)n1-2 [I-128]	< 500	< 500	< 500	< 500
	1500 to 3000	> 3000	Cc1sc2c(c1C)C(c1ccc(C3C[C@@H]3CC3CCCN(c4ccc(C(=O)N[C@H]5CC[C@H](Oc6ccc(C#N)c(Cl)c6)CC5)nn4)C3)cc1)=N[C@@H](Cc1ncco1)c1nnc(C)n1-2 (stereo partly drawn) [I-203]	500 to 1500	< 500	500 to 1500	500 to 1500
	< 500	< 500	Cc1sc2c(c1C)C(c1ccc(C3C[C@H]3CC3CCCN(c4ccc(C(=O)N[C@H]5CC[C@H](Oc6ccc(C#N)c(Cl)c6)CC5)nn4)C3)cc1)=N[C@@H](Cc1ncco1)c1nnc(C)n1-2 (stereo partly drawn) [I-204]	< 500	< 500	< 500	< 500
	< 500	< 500	Cc1sc2c(c1C)C(c1ccc(C3CC3CC3CCCN(c4ccc(C(=O)N[C@H]5CC[C@H](Oc6ccc(C#N)c(Cl)c6)CC5)nn4)C3)cc1)=N[C@@H](Cc1ncco1)c1nnc(C)n1-2 (stereo partly drawn) [I-205]	< 500	< 500	< 500	< 500
